According to ChEMBL document CHEMBL5465560, “Selectivity Literature for EUbOPEN Chemogenomic Library” (2024):
Values belong to the compound of their own block, whether it stands above or below them.

Assays:
[1] = system: T1, Receptor-type tyrosine-protein kinase FLT3 (Homo sapiens), P36888 [N841I]; experiment: Selectivity interaction (KinomeScan (DiscoverX)) EUB0000607a FLT3; conditions: at 10 µM
T1 sequence (whole entry): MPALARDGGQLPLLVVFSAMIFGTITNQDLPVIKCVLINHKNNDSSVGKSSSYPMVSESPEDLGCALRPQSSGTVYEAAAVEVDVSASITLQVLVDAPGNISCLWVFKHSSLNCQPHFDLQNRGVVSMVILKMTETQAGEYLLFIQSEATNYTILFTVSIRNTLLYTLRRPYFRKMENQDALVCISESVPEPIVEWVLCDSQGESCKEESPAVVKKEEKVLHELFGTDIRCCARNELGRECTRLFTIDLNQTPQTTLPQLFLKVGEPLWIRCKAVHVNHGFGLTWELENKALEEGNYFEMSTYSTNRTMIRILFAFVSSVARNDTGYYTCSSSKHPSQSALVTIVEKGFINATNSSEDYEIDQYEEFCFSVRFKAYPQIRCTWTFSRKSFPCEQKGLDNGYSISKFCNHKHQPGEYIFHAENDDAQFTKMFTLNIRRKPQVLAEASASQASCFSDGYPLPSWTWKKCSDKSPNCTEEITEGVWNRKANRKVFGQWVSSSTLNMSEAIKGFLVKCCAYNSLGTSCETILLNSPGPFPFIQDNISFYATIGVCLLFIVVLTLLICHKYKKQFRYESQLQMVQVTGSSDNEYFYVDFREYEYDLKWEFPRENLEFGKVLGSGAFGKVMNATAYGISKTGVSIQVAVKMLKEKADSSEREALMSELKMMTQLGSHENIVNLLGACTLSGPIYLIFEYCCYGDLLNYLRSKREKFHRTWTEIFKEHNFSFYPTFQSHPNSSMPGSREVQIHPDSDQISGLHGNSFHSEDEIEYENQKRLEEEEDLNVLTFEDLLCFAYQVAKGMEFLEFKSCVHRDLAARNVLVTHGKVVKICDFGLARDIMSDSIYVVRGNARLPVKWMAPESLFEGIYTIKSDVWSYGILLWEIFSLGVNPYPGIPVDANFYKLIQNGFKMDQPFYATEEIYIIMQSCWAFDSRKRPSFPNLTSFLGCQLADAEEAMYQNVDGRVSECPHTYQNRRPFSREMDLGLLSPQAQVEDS

[2] = target: T2, Mitogen-activated protein kinase kinase kinase 5 (Homo sapiens) (UniProt Q99683); conditions: at 10 µM
T2 sequence (whole entry): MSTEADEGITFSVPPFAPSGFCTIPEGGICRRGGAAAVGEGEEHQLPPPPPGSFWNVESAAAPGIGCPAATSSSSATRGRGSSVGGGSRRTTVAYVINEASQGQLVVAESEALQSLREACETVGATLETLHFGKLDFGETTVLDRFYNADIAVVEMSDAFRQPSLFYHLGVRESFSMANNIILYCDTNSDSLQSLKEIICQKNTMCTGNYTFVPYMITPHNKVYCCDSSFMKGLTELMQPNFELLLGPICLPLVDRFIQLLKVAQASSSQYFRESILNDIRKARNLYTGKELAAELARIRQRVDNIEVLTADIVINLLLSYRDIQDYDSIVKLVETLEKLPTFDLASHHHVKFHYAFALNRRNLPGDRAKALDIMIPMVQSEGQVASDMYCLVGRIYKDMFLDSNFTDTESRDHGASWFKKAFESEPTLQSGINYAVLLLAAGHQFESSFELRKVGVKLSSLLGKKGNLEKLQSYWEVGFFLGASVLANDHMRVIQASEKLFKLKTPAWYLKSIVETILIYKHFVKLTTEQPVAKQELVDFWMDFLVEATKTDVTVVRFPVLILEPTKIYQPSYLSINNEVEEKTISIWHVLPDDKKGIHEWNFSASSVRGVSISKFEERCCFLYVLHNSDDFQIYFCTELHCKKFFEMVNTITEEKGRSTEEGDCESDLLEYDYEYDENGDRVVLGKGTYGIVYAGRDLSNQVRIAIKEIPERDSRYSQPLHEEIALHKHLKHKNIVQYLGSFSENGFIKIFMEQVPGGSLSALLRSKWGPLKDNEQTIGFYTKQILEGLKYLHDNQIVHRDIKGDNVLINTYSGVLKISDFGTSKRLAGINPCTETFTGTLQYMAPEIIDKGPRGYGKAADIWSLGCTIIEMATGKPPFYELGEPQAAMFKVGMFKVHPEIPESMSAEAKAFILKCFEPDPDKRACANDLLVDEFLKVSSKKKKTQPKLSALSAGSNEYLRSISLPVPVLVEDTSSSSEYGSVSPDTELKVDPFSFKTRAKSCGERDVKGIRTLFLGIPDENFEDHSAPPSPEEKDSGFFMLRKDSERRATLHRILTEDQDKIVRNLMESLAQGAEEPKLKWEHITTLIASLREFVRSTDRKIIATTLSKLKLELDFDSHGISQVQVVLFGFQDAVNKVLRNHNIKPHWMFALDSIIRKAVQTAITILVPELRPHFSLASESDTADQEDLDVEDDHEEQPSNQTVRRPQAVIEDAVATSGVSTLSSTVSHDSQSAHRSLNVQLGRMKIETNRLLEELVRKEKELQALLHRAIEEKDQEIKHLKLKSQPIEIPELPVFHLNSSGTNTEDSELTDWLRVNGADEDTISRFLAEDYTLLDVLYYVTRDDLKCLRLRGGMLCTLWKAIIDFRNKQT

[3] = target: Tyrosine-protein kinase receptor Tie-1 (Homo sapiens) (UniProt P35590); experiment: Selectivity interaction (KinomeScan (DiscoverX)) EUB0000695a TIE1; conditions: at 100 nM
Tyrosine-protein kinase receptor Tie-1 (Homo sapiens), sequence (P35590 whole entry): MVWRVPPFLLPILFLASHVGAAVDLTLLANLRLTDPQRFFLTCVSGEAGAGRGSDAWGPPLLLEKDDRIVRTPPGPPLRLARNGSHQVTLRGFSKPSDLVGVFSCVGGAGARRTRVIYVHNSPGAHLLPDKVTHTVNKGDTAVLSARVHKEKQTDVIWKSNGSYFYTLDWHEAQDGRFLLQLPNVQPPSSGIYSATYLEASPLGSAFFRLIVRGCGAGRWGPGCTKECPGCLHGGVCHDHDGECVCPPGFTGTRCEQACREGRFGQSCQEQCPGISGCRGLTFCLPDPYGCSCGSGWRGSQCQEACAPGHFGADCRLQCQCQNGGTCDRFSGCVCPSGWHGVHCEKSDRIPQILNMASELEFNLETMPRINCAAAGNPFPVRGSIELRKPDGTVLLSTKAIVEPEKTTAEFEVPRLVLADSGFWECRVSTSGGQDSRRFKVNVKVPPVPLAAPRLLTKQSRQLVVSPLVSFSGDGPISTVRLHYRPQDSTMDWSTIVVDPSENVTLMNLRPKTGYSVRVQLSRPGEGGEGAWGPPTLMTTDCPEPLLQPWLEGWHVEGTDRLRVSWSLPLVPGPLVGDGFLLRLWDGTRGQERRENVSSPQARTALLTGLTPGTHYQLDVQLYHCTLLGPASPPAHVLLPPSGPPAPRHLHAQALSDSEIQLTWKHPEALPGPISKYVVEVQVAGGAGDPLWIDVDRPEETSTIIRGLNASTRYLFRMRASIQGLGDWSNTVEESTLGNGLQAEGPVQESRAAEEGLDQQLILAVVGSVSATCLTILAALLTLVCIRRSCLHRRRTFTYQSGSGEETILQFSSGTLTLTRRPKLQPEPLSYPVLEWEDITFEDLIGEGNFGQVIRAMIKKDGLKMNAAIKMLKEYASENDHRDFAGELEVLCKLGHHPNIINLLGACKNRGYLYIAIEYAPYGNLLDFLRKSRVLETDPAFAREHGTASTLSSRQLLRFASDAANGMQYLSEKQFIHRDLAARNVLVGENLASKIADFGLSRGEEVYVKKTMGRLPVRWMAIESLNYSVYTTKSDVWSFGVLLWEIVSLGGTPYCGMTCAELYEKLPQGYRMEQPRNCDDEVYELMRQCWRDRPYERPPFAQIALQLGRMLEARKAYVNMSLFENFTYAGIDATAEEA

[4] = target: T3, Tyrosine-protein kinase ITK/TSK (Homo sapiens) (UniProt Q08881); experiment: Selectivity interaction (KinomeScan (DiscoverX)) EUB0000092b ITK; conditions: at 10 µM
T3 sequence (whole entry): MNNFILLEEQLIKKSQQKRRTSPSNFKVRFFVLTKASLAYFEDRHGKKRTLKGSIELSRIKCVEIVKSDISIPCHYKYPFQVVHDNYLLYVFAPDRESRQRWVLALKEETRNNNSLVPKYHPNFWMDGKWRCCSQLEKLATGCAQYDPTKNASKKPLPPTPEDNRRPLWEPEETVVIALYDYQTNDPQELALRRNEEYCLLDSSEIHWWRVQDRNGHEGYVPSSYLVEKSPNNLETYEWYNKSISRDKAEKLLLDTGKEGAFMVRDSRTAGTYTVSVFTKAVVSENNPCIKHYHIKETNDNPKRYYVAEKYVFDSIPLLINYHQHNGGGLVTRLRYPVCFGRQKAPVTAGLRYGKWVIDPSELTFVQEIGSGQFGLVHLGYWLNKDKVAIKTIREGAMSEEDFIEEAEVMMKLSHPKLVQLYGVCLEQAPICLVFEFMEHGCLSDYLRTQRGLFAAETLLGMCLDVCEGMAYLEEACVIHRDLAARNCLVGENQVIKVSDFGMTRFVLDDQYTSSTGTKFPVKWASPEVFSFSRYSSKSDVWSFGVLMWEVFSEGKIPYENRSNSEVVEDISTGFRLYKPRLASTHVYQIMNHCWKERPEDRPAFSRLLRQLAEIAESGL

SMILES: CNC(=O)Nc1ccc(-c2nc(N3CC4CCC(C3)O4)c3cnn(C4CCC5(CC4)OCCO5)c3n2)cc1
% of control [1]: 89%

% of control [2]: 100%
SMILES: CCN(CC)CCCCNc1ncc2cc(-c3cc(OC)cc(OC)c3)c(NC(=O)NC(C)(C)C)nc2n1

SMILES: Cc1cc(F)c(C(=O)Nc2cccc(-c3nncn3C(C)C)n2)cc1-n1cnc(C2CC2)c1
% of control [3]: 87%

SMILES: CCC(=O)N1CCN(c2ccc(-n3c(=O)ccc4cnc5ccc(-c6cnc7ccccc7c6)cc5c43)cc2C(F)(F)F)CC1
% of control [4]: 100%
